Blank lines part the entries; values can stand above or below the molecule they belong to.
Experiments:
[1] = system: nuclear receptors of the androgens or of the oestrogens; settings: Lapenna et al., 2015; cited from earlier work
[2] = Phase I clinical trial, single administrations (SAD), plasma pharmacokinetics; assay type: in vivo, humans; settings: SAD cohorts, FIG. 3
Experimental: In the context of a phase I clinical trial, the plasma concentrations of BIO101 were measured after single administrations (SAD) of 100, 350, 700 and 1400 mg/day in individuals on an empty stomach. Repeated administrations (MAD) over 14 days were then carried out with a single daily dose of 350 mg or with two daily doses (morning and evening) of 350 mg and 450 mg. These administrations of BIO101 to various cohorts of volunteers (n=6) allowed to determine the main pharmacokinetic parameters of BIO101: Cmax (maximum plasma concentration of BIO101 after single or repeated), Cmin (minimum plasma concentration of BIO101 after single or repeated administration), Tmax (time necessary to reach the maximum plasma concentration of BIO101 after single or repeated administration), and AUC (Area under curve) synonymous with level of plasma exposure.
The average profile of the cohorts of the SAD is presented in FIG. 3 in which Y are young volunteers and O are volunteers, the age of which is between 65 and 85 years. […] The half-life of the 20E is approximately 3-4 hours.

[3] = pure molecule, data of the literature; cited from earlier work
[4] = Bioavailability with respect to 20E; settings: relative to 20E

SMILES: C[C@]12C[C@H](O)[C@H](O)C[C@H]1C(=O)C=C1[C@@H]2CC[C@]2(C)C(=O)CC[C@@]12O [rubrosterone, Rubrosterone]
Interaction with nuclear receptors of the androgens or of the oestrogens [1]: capable of interacting

Bioavailability [2]: low bioavailability
Elimination of the active ingredient from plasma [2]: almost totally disappears after 24 hours
Half-life [2]: 3 to 4 h
SMILES: CC(C)(O)CC[C@@H](O)[C@](C)(O)[C@H]1CC[C@@]2(O)C3=CC(=O)[C@@H]4C[C@@H](O)[C@@H](O)C[C@]4(C)[C@H]3CC[C@]12C [20E, 20-hydroxyecdysone]
Cytotoxicity [3]: slightly cytotoxic

SMILES: CC12CC(O)C(O)CC1C(=O)C=C1C2CCC2(C)C(O)CCC12O (centres unmarked) [dihydrorubrosterone, Dihydrorubrosterone]
Interaction with nuclear receptors of the androgens or of the oestrogens [1]: capable of interacting

SMILES: CC(=O)[C@H]1CC[C@@]2(O)C3=CC(=O)[C@@H]4C[C@@H](O)[C@@H](O)C[C@]4(C)[C@H]3CC[C@]12C [poststerone, Poststerone]
Interaction with nuclear receptors of the androgens or of the oestrogens [1]: capable of interacting
Bioavailability with respect to 20E [4]: approximately twenty times better

Source: patent publication US20200148718A1, “PHARMACEUTICAL-GRADE 20-HYDROXYECDYSONE EXTRACT, USE OF SAME AND PREPARATION THEREOF” (BIOPHYTIS, priority 2017, published 2020)
